This note sets out measurements from article PMC6154534, “New Benzimidazole-1,2,4-Triazole Hybrid Compounds: Synthesis, Anticandidal Activity and Cytotoxicity Evaluation” (Molecules : A Journal of Synthetic Chemistry and Natural …, 2017).

Data set [1] deals with C. parapsilosis (ATCC 22019). Kind of data set: Anticandidal broth microdilution (EUCAST EDef 7.1), resazurin fluorometric readout. The format is cell-based. As to conditions: Lodderomyces parapsilosis, ATCC22019; ATCC 22019, RPMI pH 7, 24 h incubation; read-out: MIC50 C. parapsilopsis. On the procedure: (§1) Synthesized compounds (5a-5ad) were evaluated for anticandidal activity against C. albicans (ATCC 24433), C. krusei (ATCC 6258), C. parapsilosis (ATCC 22019) and C. [NT] 90030). MIC50 values were evaluated via fluorometric measurements, using resazurin solution [56, 57]. […] [NT] 90030). MIC readings were carried out twice for each chemical agent. The yeasts were maintained in RPMI after overnight incubation at 37 °C. The inocula of test microorganisms adjusted to match the turbidity of a MacFarland 0.5 standard tube as determined with a spectrophotometer and the final inoculum size was 0.5-2.5 × 10^5 cfu/mL for antifungal assay. Testing was carried out in RPMI at pH = 7 and the two-fold serial dilutions technique was applied. The last well on the microplates containing only inoculated broth was kept as controls and the last well with no growth of microorganism was recorded to represent the MIC50 expressed in μg/mL. For the antifungal assays, the compounds were dissolved in DMSO. […] The completed plates were incubated for 24 h. At the end of the incubation, resazurin (20 μg/mL) was added into each well to control whether the growth in wells. Then, plates were allowed to incubate for 2 h. MIC50 values were determined using a microplate reader at […].

In data set [2] the test system is C. glabrata (ATCC 90030). The description is as above. The format is cell-based. The following applies: Nakaseomyces glabratus, ATCC90030; ATCC 90030, RPMI pH 7, 24 h incubation. As for the experimental part: as §1
Data set [3] relates to C. krusei (ATCC 6258). The description is as above. The format is cell-based. The following applies: Pichia kudriavzevii, ATCC6258; ATCC 6258, RPMI pH 7, 24 h incubation. As for the experimental part:
as §1

For data set [4], the system named is C. albicans (ATCC 24433). Described as above. The format is cell-based. The following applies: Candida albicans, ATCC24433; ATCC 24433, RPMI pH 7, 24 h incubation. As for the experimental part: as §1
Data set [5] relates to C. albicans. In words: Fluorescence microscopy (Live/Dead BacLight, SYTO-9 / PI). The following applies: 3.12 µg/mL (4 × MIC50), 2 h. Format: cell-based. The source says: Ergosterol is the major fungal membrane sterol that regulates membrane fluidity, plasma membrane biogenesis and functions. […] It is known that propidium iodide (PI) enters only cells with damaged membranes, while SYTO-9 marks cells with both damaged and unaffected membranes. […] Consequently, fluorescence microscopic experiments supported the findings observed in inhibition of biosynthesis of ergosterol, which is a vital sterol regulating membrane functions. The Live/Dead BacLight viability kit from Molecular Probes, Inc. (Eugene, OR, USA) was used as reported by Nobman et al.. In this assay, the SYTO-9 and PI stains are in competition to bind to fungal nucleic acid. PI enters only cells with damaged membranes, while SYTO-9 marks cells with both damaged and unaffected membranes. A culture of C. albicans was grownup to mid-log phase in 20 mL of SDB. Twenty milliliters of the yeast culture was divided into two equal parts. […] The second culture was incubated under same conditions without a compound. Both cultures were centrifuged at 3000 rpm for 10 min. and then cell pellets were incubated with PI and SYTO9 at 40 °C for 30 min. The stained yeast cultures were observed under a fluorescence microscope (Carl-Zeis, Axio Scope.A1, Göttingen, Germany) using 100× oil-immersion objective.

Data set [6] has as its system NIH/3T3 mouse embryonic fibroblast cell line (ATCC CRL1658). In words: MTT cytotoxicity assay. The following applies: NIH3T3, tested 800 to 0.78 µg/mL, read-out: IC50 on NIH/3T3 mouse embryonic fibroblast cell lines. The format is cell-based. The source says:
Toxicity is a key cause of failure at all steps of the new drug development process. The most part of safety-related problems occur at preclinical phases to predict preclinical safety liabilities earlier in the new drug development process. This approach allows to design and/or selection of better drug candidates that have more potentials to be marketed drugs. […] Cytotoxicities of selected compounds (5m, 5o, 5r, 5w, 5y, 5ab, and 5ad), displaying strong anticandidal activity and good predicted pharmacokinetics, were determined against NIH/3T3 mouse embryonic fibroblast cell lines (ATCC CRL1658).
Cytotoxicity was tested using the NIH/3T3 mouse embryonic fibroblast cell line (ATCC® CRL-1658™, London, UK). NIH/3T3 cells were incubated according to the supplier’s recommendations and they were seeded at 1 × 10^4 cells into each well of 96-well plates. MTT assay was performed as previously described. The compounds were tested in a concentration range of 800 µg/mL and 0.78 µg/mL concentrations. Percent inhibition was calculated for each concentration according to the formula below, and IC50 values were determined by plotting a concentration–response curve of inhibition percent versus compound concentrations tested.

For data set [7], the system named is ergosterol biosynthesis in C. albicans (ATCC 24433). In words: Quantification of ergosterol level by LC-MS-MS. The format is cell-based. As to conditions: 0.78, 1.56 and 3.12 µg/mL, 16 h, negative control = 100%. The source says:
The most of therapies, planned to treat fungal infections, target in the ergosterol biosynthesis pathway or its end product, ergosterol, a membrane sterol that is unique to fungi. It is the main sterol, and thus is essential for growth and normal membrane function of fungal cell. Besides serving as a bioregulator of membrane fluidity, asymmetry and integrity, it contributes to proper function of membrane-bound enzymes. […] Total intracellular sterols were extracted as reported by Breivik and Owades. […] Ergosterol standard (Product No. 45480, Sigma-Aldrich, Darmstadt, Germany) was used for quantification of ergosterol in both inhibitor-free (negative control) and inhibitor including samples. Ergosterol quantity in negative control samples was regarded as 100%. All concentrations were analyzed in quadruplicate, and the results were expressed as mean ± standard deviation (SD) (Figure 2).
Total intracellular sterols were extracted as reported by Breivik and Owades with slight modifications. […] The cultures were incubated for 16 h with shaking at 35 °C. […] Ergosterol quantity in negative control samples was regarded as 100%. All concentrations were analyzed in quadruplicate, and the results were expressed as mean ± standard deviation (SD).

Data set [8] deals with Candida species. In words: Anticandidal broth microdilution, results summarised over all strains. The format is cell-based. As to conditions: summary over all four Candida strains; for MIC50: Candida, read-out: MIC50 against Candida species. As for the experimental part: as §1

Values after ≈ are worked out from the molar mass of the structure shown.

In the case of `Cn1c(SCC(=O)c2ccc(F)cc2)nnc1-c1ccc(-c2nc3ccc(F)cc3[nH]2)cc1` [Compound 5w, 2-((5-(4-(6-Fluoro-1H-benzimidazol-2-yl)phenyl)-4-methyl-4H-1,2,4-triazol-3-yl)thio)-1-(4-fluorophenyl)ethan-1-one], the MIC50 in data set [1], in [2], in data set [3], in data set [4] and in [8] was 0.78 µg/mL (≈ 1.69 µM) each time. The “effect on C. albicans cell membrane (PI penetration)” value in data set [5] is “membrane damaging effect”. The IC50 in data set [6] was found to be 65.3 ± 2.94 µg/mL (≈ 141 µM). Besides, in data set [7], the “level of ergosterol in C. albicans (in words)” value was “significantly decreased the level of ergosterol at all tested concentrations”. Moreover, the “MIC50 against Candida species” value in [8] lay within 0.78 to 1.56 µg/mL.
Consider `CCn1c(SCC(=O)c2ccc(F)cc2F)nnc1-c1ccc(-c2nc3ccc(F)cc3[nH]2)cc1` [Compound 5ad, 1-(2,4-Difluorophenyl)-2-((4-ethyl-5-(4-(6-fluoro-1H-benzimidazol-2-yl)phenyl)-4H-1,2,4-triazol-3-yl)thio)ethan-1-one], for which the melting point came out at 234.2 °C. In [1], the MIC50 stood at 0.78 µg/mL (≈ 1.58 µM). Further, in data set [2], the MIC50 is 0.78 µg/mL (≈ 1.58 µM). This compound yielded an MIC50 in data set [3] of 1.56 µg/mL (≈ 3.16 µM). The compound further registered an MIC50 in [4] of 0.78 µg/mL (≈ 1.58 µM). Moreover, in [6], the IC50 was determined as 120 ± 4.39 µg/mL (≈ 242 µM). Further, the “level of ergosterol in C. albicans (in words)” value in data set [7] is reported as “significantly decreased the level of ergosterol at all tested concentrations”. In addition, the MIC50 in data set [8] was in the range of 0.78 to 1.56 µg/mL (≈ 1.58 to 3.16 µM).
